Reference: ChEMBL document CHEMBL4038298, “Ester- and amide-containing multiQACs: Exploring multicationic soft antimicrobial agents” (Bioorg Med Chem Lett, 2017)

How the values were obtained:
Staphylococcus aureus [1] = assay: Antibacterial activity against methicillin-susceptible Staphylococcus aureus SH1000 incubated for 72 hrs; type: functional; settings: SH1000, 72 h
Staphylococcus aureus [2] = assay: Antibacterial activity against community acquired methicillin-resistant Staphylococcus aureus USA300-0114 incubated for 72 hrs; type: functional; settings: USA300-0114, 72 h
Enterococcus faecalis = assay: Antibacterial activity against Enterococcus faecalis OG1RF incubated for 72 hrs; type: functional
Escherichia coli = assay: Antibacterial activity against Escherichia coli MC4100 incubated for 72 hrs; type: functional; settings: str. K-12 substr. MC4100, 72 h
Pseudomonas aeruginosa = assay: Antibacterial activity against Pseudomonas aeruginosa PAO1 incubated for 72 hrs; type: functional; settings: PAO1, 72 h
[3] = Stability of the compound in pure water by LCMS method; type: physicochemical
Staphylococcus aureus [4] = assay: Antibacterial activity against hospital-acquired methicillin-resistant Staphylococcus aureus ATCC 33592 incubated for 72 hrs; type: functional; settings: ATCC 33592, 72 h

SMILES | MIC (Staphylococcus aureus [1]) [µM] | MIC (Staphylococcus aureus [2]) [µM] | MIC (Enterococcus faecalis) [µM] | MIC (Escherichia coli) [µM] | MIC (Pseudomonas aeruginosa) [µM] | Stability [3] | MIC (Staphylococcus aureus [4]) [µM]
CCCCCCCCOC(=O)C[N+](C)(C)CCN1CC[N+](C)(CC(=O)OCCCCCCCC)CC1.[Br-].[Br-] | > 250 | 32 | 63 | 250 | > 250 | Stable | 63
CCCCCCCOC(=O)C[N+](C)(C)CCCN(CCC[N+](C)(C)CC(=O)OCCCCCCC)CCC[N+](C)(C)CC(=O)OCCCCCCC.[Br-].[Br-].[Br-] | 16 | 8 | 32 | 63 | > 250 | Stable | 32
CCCCCCOC(=O)C[N+](C)(C)CC[N+](C)(C)CC(=O)OCCCCCC.[Br-].[Br-] | > 250 | 250 | > 250 | > 250 | > 250 | Stable | > 250
CCCCCCCCCOC(=O)C[N+](C)(C)CCC[N+](C)(CCC[N+](C)(C)CC(=O)OCCCCCCCCC)CC(=O)OCCCCCCCCC.[Br-].[Br-].[Br-] | 4 | 8 | 16 | 8 | 32 | Stable | 8
CCCCCCCCOC(=O)C[N+](C)(C)CC[N+](C)(C)CC(=O)OCCCCCCCC.[Br-].[Br-] | 32 | 16 | 63 | 63 | 125 | Stable | 32
CCCCCCCCCCNC(=O)C[N+](C)(C)CC[N+](C)(C)CC(=O)NCCCCCCCCCC.[Br-].[Br-] | 1 | 0.5 | 1 | 1 | 2 | Stable | 1
CCCCCCCCOC(=O)C[N+](C)(C)Cc1ccccc1.[Br-] | 125 | 250 | 250 | 250 | > 250 | Stable | 125
CCCCCCCCOC(=O)C[N+](C)(C)CCC[N+](C)(CCC[N+](C)(C)CC(=O)OCCCCCCCC)CC(=O)OCCCCCCCC.[Br-].[Br-].[Br-] | 8 | 8 | 16 | 16 | 32 | Stable | 8
CCCCCCCCCCCCOC(=O)C[N+](C)(C)CCN1CC[N+](C)(CC(=O)OCCCCCCCCCCCC)CC1.[Br-].[Br-] | 8 | 8 | 32 | 16 | 32 | Stable | 8
CCCCCCCOC(=O)C[N+](C)(C)CC[N+](C)(C)CC(=O)OCCCCCCC.[Br-].[Br-] | 250 | 125 | > 250 | > 250 | > 250 | Stable | 250
CCCCCCCCCCNC(=O)C[N+](C)(C)CCC[N+](C)(CCC[N+](C)(C)CC(=O)NCCCCCCCCCC)CC(=O)NCCCCCCCCCC.[Br-].[Br-].[Br-] | 1 | 1 | 2 | 2 | 63 | Stable | 2
CCCCCCCCCCCCOC(=O)C[N+](C)(C)Cc1ccccc1.[Br-] | 2 | 2 | 4 | 16 | 63 | Stable | 2
CCCCCCCCOC(=O)C[N+](C)(C)CCCN(CCC[N+](C)(C)CC(=O)OCCCCCCCC)CCC[N+](C)(C)CC(=O)OCCCCCCCC.[Br-].[Br-].[Br-] | 2 | 4 | 8 | 8 | 63 | Stable | 4
CCCCCCCCCCCCOC(=O)C[N+](C)(C)CC[N+](C)(C)CC(=O)OCCCCCCCCCCCC.[Br-].[Br-] | 16 | 16 | 32 | 63 | 125 | Stable | 32
CCCCCCCCCCOC(=O)C[N+](C)(C)CCC[N+](C)(CCC[N+](C)(C)CC(=O)OCCCCCCCCCC)CC(=O)OCCCCCCCCCC.[Br-].[Br-].[Br-] | 4 | 4 | 8 | 8 | 16 | Stable | 4
CCCCCCCCCOC(=O)C[N+](C)(C)CCN1CC[N+](C)(CC(=O)OCCCCCCCCC)CC1.[Br-].[Br-] | 4 | 4 | 8 | 16 | 125 | Stable | 4
CCCCCCCCCCCCOC(=O)C[N+](C)(C)CCC[N+](C)(CCC[N+](C)(C)CC(=O)OCCCCCCCCCCCC)CC(=O)OCCCCCCCCCCCC.[Br-].[Br-].[Br-] | 4 | 8 | 8 | 8 | 16 | Stable | 8

SMILES | MIC (Staphylococcus aureus [1]) [µM] | MIC (Staphylococcus aureus [2]) [µM] | MIC (Enterococcus faecalis) [µM] | MIC (Escherichia coli) [µM] | MIC (Pseudomonas aeruginosa) [µM] | Stability [3] | MIC (Staphylococcus aureus [4]) [µM]
CCCCCCCCCOC(=O)C[N+](C)(C)CC[N+](C)(C)CC(=O)OCCCCCCCCC.[Br-].[Br-] | 2 | 4 | 16 | 16 | 32 | Stable | 8
CCCCCCOC(=O)C[N+](C)(C)Cc1ccccc1.[Br-] | > 250 | > 250 | > 250 | > 250 | > 250 | Stable | > 250
CCCCCCOC(=O)C[N+](C)(C)CCC[N+](C)(CCC[N+](C)(C)CC(=O)OCCCCCC)CC(=O)OCCCCCC.[Br-].[Br-].[Br-] | 250 | 125 | 250 | > 250 | > 250 | Stable | 250
CCCCCCCCCCNC(=O)C[N+](C)(C)Cc1ccccc1.[Br-] | 8 | 8 | 16 | 32 | 125 | Stable | 8
CCCCCCCCCCCCOC(=O)C[N+](C)(C)CCCN(CCC[N+](C)(C)CC(=O)OCCCCCCCCCCCC)CCC[N+](C)(C)CC(=O)OCCCCCCCCCCCC.[Br-].[Br-].[Br-] | 4 | 8 | 8 | 8 | > 250 | Stable | 8
CCCCCCCCCCOC(=O)C[N+](C)(C)Cc1ccccc1.[Br-] | 32 | 16 | 32 | 63 | > 250 | Stable | 32
CCCCCCCCCCCCCCOC(=O)C[N+](C)(C)CCN1CC[N+](C)(CC(=O)OCCCCCCCCCCCCCC)CC1.[Br-].[Br-] | > 250 | 250 | > 250 | > 250 | > 250 | Stable | > 250
CCCCCCCOC(=O)C[N+](C)(C)CCN1CC[N+](C)(CC(=O)OCCCCCCC)CC1.[Br-].[Br-] | > 250 | 250 | > 250 | > 250 | > 250 | Stable | > 250
CCCCCCOC(=O)C[N+](C)(C)CCCN(CCC[N+](C)(C)CC(=O)OCCCCCC)CCC[N+](C)(C)CC(=O)OCCCCCC.[Br-].[Br-].[Br-] | 63 | 63 | 250 | 250 | > 250 | Stable | 250
CCCCCCCCCCOC(=O)C[N+](C)(C)CC[N+](C)(C)CC(=O)OCCCCCCCCCC.[Br-].[Br-] | 4 | 8 | 16 | 8 | 32 | Stable | 8
CCCCCCCCCOC(=O)C[N+](C)(C)Cc1ccccc1.[Br-] | 32 | 32 | 125 | 125 | > 250 | Stable | 63
CCCCCCCCCCCCCCOC(=O)C[N+](C)(C)Cc1ccccc1.[Br-] | 1 | 2 | 4 | 8 | 250 | Stable | 1
CCCCCCCOC(=O)C[N+](C)(C)CCC[N+](C)(CCC[N+](C)(C)CC(=O)OCCCCCCC)CC(=O)OCCCCCCC.[Br-].[Br-].[Br-] | 32 | 16 | 32 | 125 | 125 | Stable | 32
CCCCCCCOC(=O)C[N+](C)(C)Cc1ccccc1.[Br-] | > 250 | > 250 | > 250 | > 250 | > 250 | Stable | > 250
CCCCCCCCCOC(=O)C[N+](C)(C)CCCN(CCC[N+](C)(C)CC(=O)OCCCCCCCCC)CCC[N+](C)(C)CC(=O)OCCCCCCCCC.[Br-].[Br-].[Br-] | 2 | 4 | 8 | 4 | 16 | Stable | 4
CCCCCCCCCCCCCCOC(=O)C[N+](C)(C)CC[N+](C)(C)CC(=O)OCCCCCCCCCCCCCC.[Br-].[Br-] | 16 | 16 | 32 | 250 | > 250 | Stable | 32
CCCCCCOC(=O)C[N+](C)(C)CCN1CC[N+](C)(CC(=O)OCCCCCC)CC1.[Br-].[Br-] | > 250 | > 250 | > 250 | > 250 | > 250 | Stable | > 250
